Experimental data taken from patent US5270047A, “Local delivery of dipyridamole for the treatment of proliferative diseases” (priority 1991, dated 1993).
Entries after “also recorded” stand apart in the source; their conditions may differ.

How the values were obtained:
[1] = test system: balloon-injured left common carotid arteries; assay: Effect of local adventitial dipyridamole upon intimal thickening after balloon injury of the left common carotid artery; type: in vivo, male Sprague-Dawley rats; conditions: 600 μg/day, fourteen days
Description: Balloon injury to the left common carotid arteries of male Sprague-Dawley rats (350-400 g) was accomplished by three passes of an inflated 2F Fogarty balloon catheter as described by Clowes et al., Lab Invest. 49:208-215 (1983). Animals were anesthetized with Ketamine (80 mg/kg, intramuscular) and Rompun (16 mg/kg, intramuscular). Entry of the balloon catheter to the left common carotid artery was made via a nick in the external carotid artery, which was tied off at the end of the surgical procedure. Continuous local delivery of dipyridamole was accomplished by means of a minosmotic pump implanted subcutaneously in the back of the rat. […]
Fourteen days post surgery, animals were anesthetized (vide supra) and perfused through the abdominal aorta in a retrograde manner at physiological pressure with a zinc formalin fixative (Anatech LTD., Battle Creek, Mich.). […] Three adjacent cross sections (5 μm thick) of each vessel were cut, stained with hematoxylin and eosin, and cross-sectional intimal areas quantitated with an image analyzer (Quantimet 970, Cambridge Inst., Cambridge, UK).
The difference between intimal areas of drug-treated vs. control groups were analyzed for statistical significance using Student's t-test as described in Tallarida et al., Manual of Pharmacologic Calculations with Computer Programs, Springer-Verlag, New York, 1981, p. […]

[2] = test system: Smooth muscle cells from rabbit aorta; assay: Effect of serum concentration on inhibition of PDGF-induced DNA synthesis (3H thymidine incorporation) by dipyridamole; type: cell-based; conditions: for inhibition at 0.04 µg/mL / inhibition at 0.08 µg/mL / inhibition at 0.15 µg/mL / inhibition at 0.3 µg/mL / inhibition at 0.6 µg/mL / inhibition at 1.2 µg/mL / inhibition at 2.5 µg/mL: Oryctolagus cuniculus, 24 h, 40 ng/ml PDGF; for inhibition at 0.04 µg/mL: dipyridamole 0.04 μg/ml; for inhibition at 0.08 µg/mL: dipyridamole 0.08 μg/ml; for inhibition at 0.15 µg/mL: dipyridamole 0.15 μg/ml; for inhibition at 0.3 µg/mL: dipyridamole 0.3 μg/ml; for inhibition at 0.6 µg/mL: dipyridamole 0.6 μg/ml; for inhibition at 1.2 µg/mL: dipyridamole 1.2 μg/ml; for inhibition at 2.5 µg/mL: dipyridamole 2.5 μg/ml
Description: Serum reduces the effectiveness of systemically administered dipyridamole as an inhibitor of cell proliferation. […] Growth arrested, confluent cultures in 96 well microtiter plates were incubated in medium containing 1%, 5% or 20% serum (Hyclone Laboratories, Logan, Utah), 2 mM L-glutamine, 100 U/ml penicillin, 100 μg/ml streptomycin, 40 ng/ml PDGF (Genzyme, Cambridge, Mass.), 1 μci/ml ^3 H thymidine (DuPont, Boston, Mass.) and indicated concentrations of dipyridamole (Sigma Chemical, St. Louis, Mo.). Cells were incubated at 37° C. for 24 hours under 5% CO2 /95% air. At the end of 24 hours, cells were fixed in methanol and DNA synthesis was determined by ^3 H thymidine incorporation as described in Bonin et al., Exp. Cell Res. 181, 475-482 (1989).

[3] = test system: Smooth muscle cells from rabbit aorta; assay: Inhibition of DNA synthesis (3H thymidine incorporation) induced by PDGF, FGF or EGF; type: cell-based; conditions: for inhibition at 0.08 µg/mL / inhibition at 0.15 µg/mL / inhibition at 0.32 µg/mL / inhibition at 0.64 µg/mL / inhibition at 1.2 µg/mL / inhibition at 2.5 µg/mL: Oryctolagus cuniculus, Platelet, 24 h, 1% platelet poor plasma; for inhibition at 0.08 µg/mL: dipyridamole 0.08 μg/ml; for inhibition at 0.15 µg/mL: dipyridamole 0.15 μg/ml; for inhibition at 0.32 µg/mL: dipyridamole 0.32 μg/ml; for inhibition at 0.64 µg/mL: dipyridamole 0.64 μg/ml; for inhibition at 1.2 µg/mL: dipyridamole 1.2 μg/ml; for inhibition at 2.5 µg/mL: dipyridamole 2.5 μg/ml
Description: Dipyridamole inhibits smooth muscle cell proliferation induced by multiple growth factors. Smooth muscle cells from rabbit aorta (derived by explant method) were seeded in 96 well tissue culture plates in DMEM containing 10% fetal bovine serum, 2 mM L-glutamine, 100 U/ml penicillin and 100 μg/ml streptomycin. Growth arrested, confluent cultures in 96 well microtiter plates were incubated in medium containing 1% platelet poor plasma, 2 mM L-glutanime, 100 U/ml penicillin, 100 μg/ml streptomycin, 20 ng/ml PDGF, 3 ng/ml EGF (Genzyme), 3 ng/ml FGF (Genzyme), 1 μci/ml ^3 H thymidine and indicated concentrations of dipyridamole. Cells were incubated at 37° C. for 24 hours under 5% CO2 /95% air. At the end of 24 hours, cells were fixed in methanol. DNA synthesis was determined by ^3 H thymidine incorporation as previously described.

Balb/c3T3 fibroblasts = assay: Inhibition of fibroblast growth (Coulter cell counting); type: cell-based
Description: Cells were then transferred to above medium containing indicated concentrations of dipyridamole. After three days cell growth was determined by counting using a ZM Coulter counter (Coulter Diagnostic, Inc.).

vascular restenosis = conditions: systemic administration; patients; cited from earlier work

SMILES: OCCN(CCO)c1nc(N2CCCCC2)c2nc(N(CCO)CCO)nc(N3CCCCC3)c2n1 [Dipyridamole, 2,6-bis(diethanolamino)-4,8-dipiperidinopyrimido[5,4-d]pyrimidine]
- Area of Intimal Thickening (% of control) ([1]; P < 0.05 vs. control): 67.4 % of control
- Area of Intimal Thickening ([1]; vehicle 0.129 ± 0.013, P < 0.05 vs. control): 0.087 ± 0.011 mm^2
- effect of serum on antiproliferative activity ([2]; 1%, 5% or 20% serum): increasing concentrations of serum attenuate the growth inhibitory effects of dipyridamole
- inhibition at 0.04 µg/mL ([2]; 1% serum): 59%
- inhibition at 0.08 µg/mL ([2]; 1% serum): 70%
- inhibition at 0.15 µg/mL ([2]; 1% serum): 79%
- inhibition at 0.3 µg/mL ([2]; 1% serum): 80%
- inhibition at 0.6 µg/mL ([2]; 1% serum): 86%
- inhibition at 1.2 µg/mL ([2]; 1% serum): 90%
- inhibition at 2.5 µg/mL ([2]; 1% serum): 93%
- inhibition at 0.04 µg/mL ([2]; 5% serum): 52%
- inhibition at 0.08 µg/mL ([2]; 5% serum): 53%
- inhibition at 0.15 µg/mL ([2]; 5% serum): 60%
- inhibition at 0.3 µg/mL ([2]; 5% serum): 71%
- inhibition at 0.6 µg/mL ([2]; 5% serum): 80%
- inhibition at 1.2 µg/mL ([2]; 5% serum): 87%
- inhibition at 2.5 µg/mL ([2]; 5% serum): 92%
- inhibition at 0.04 µg/mL ([2]; 20% serum): 6%
- inhibition at 0.08 µg/mL ([2]; 20% serum): 0%
- inhibition at 0.15 µg/mL ([2]; 20% serum): 33%
- inhibition at 0.3 µg/mL ([2]; 20% serum): 38%
- inhibition at 0.6 µg/mL ([2]; 20% serum): 60%
- inhibition at 1.2 µg/mL ([2]; 20% serum): 74%
- inhibition at 2.5 µg/mL ([2]; 20% serum): 77%
- inhibition at 0.08 µg/mL ([3]; EGF (3 ng/ml)): 68%
- inhibition at 0.15 µg/mL ([3]; EGF (3 ng/ml)): 76%
- inhibition at 0.32 µg/mL ([3]; EGF (3 ng/ml)): 85%
- inhibition at 0.64 µg/mL ([3]; EGF (3 ng/ml)): 90%
- inhibition at 1.2 µg/mL ([3]; EGF (3 ng/ml)): 94%
- inhibition at 2.5 µg/mL ([3]; EGF (3 ng/ml)): 96%
- inhibition at 0.08 µg/mL ([3]; FGF (3 ng/ml)): 67%
- inhibition at 0.15 µg/mL ([3]; FGF (3 ng/ml)): 74%
- inhibition at 0.32 µg/mL ([3]; FGF (3 ng/ml)): 80%
- inhibition at 0.64 µg/mL ([3]; FGF (3 ng/ml)): 87%
- inhibition at 1.2 µg/mL ([3]; FGF (3 ng/ml)): 92%
- inhibition at 2.5 µg/mL ([3]; FGF (3 ng/ml)): 93%
- inhibition at 0.08 µg/mL ([3]; PDGF (20 ng/ml)): 64%
- inhibition at 0.15 µg/mL ([3]; PDGF (20 ng/ml)): 71%
- inhibition at 0.32 µg/mL ([3]; PDGF (20 ng/ml)): 82%
- inhibition at 0.64 µg/mL ([3]; PDGF (20 ng/ml)): 89%
- inhibition at 1.2 µg/mL ([3]; PDGF (20 ng/ml)): 93%
- inhibition at 2.5 µg/mL ([3]; PDGF (20 ng/ml)): 96%
- inhibition of smooth muscle cell proliferation induced by growth factors ([3]; PDGF, FGF, and EGF): inhibits cell proliferation induced by PDGF, FGF, and EGF
- inhibition at 1 µg/mL (Balb/c3T3 fibroblasts; Mus musculus, BALB/c3T3, 72 h, dipyridamole 1.0 μg/ml, three days, 5% fetal bovine serum): 0%
- inhibition at 5 µg/mL (Balb/c3T3 fibroblasts; Mus musculus, BALB/c3T3, 72 h, dipyridamole 5.0 μg/ml, three days, 5% fetal bovine serum): 55%
- inhibition at 10 µg/mL (Balb/c3T3 fibroblasts; Mus musculus, BALB/c3T3, 72 h, dipyridamole 10 μg/ml, three days, 5% fetal bovine serum): 72%
- inhibition at 20 µg/mL (Balb/c3T3 fibroblasts; Mus musculus, BALB/c3T3, 72 h, dipyridamole 20 μg/ml, three days, 5% fetal bovine serum): 86%
- inhibition at 40 µg/mL (Balb/c3T3 fibroblasts; Mus musculus, BALB/c3T3, 72 h, dipyridamole 40 μg/ml, three days, 5% fetal bovine serum): 95%
- inhibition of proliferation of cells of mesenchyme origin (Balb/c3T3 fibroblasts; fibroblasts): inhibits proliferation of cells of mesenchyme origin
- effect in treating or preventing vascular restenosis (vascular restenosis): ineffective; also recorded: ineffective in treating or preventing vascular restenosis in patients
